Measurements taken from patent US5120736A, “4-methyl-5-(2-(4-phenylpiperazin-1-yl)ethyl)thiazole derivatives their method of preparation and the pharmaceutical compositions in which they are present” (Institut de Recherches Chimiques et Biologiques Appliquees, priority 1988, dated 1992).
Like-named read-outs stand apart in the source and are kept apart here.

Assays:
[1] = Acute toxicity in mice, single oral administration; conditions: mouse, in vivo, male mice, 14 days observation, read-out: LD50 (50 percent lethal dose)
Description: 1) Acute toxicity in mice:
Principle of the measurement
The products were administered orally, in a single dose, to male mice with an average weight of 22 g. The mortality was recorded after an observation period of 14 days.
The results are expressed in the form of the 50% lethal dose (LD50), i.e. the theoretical dose in mg.kg^-1, administered orally, which causes the death of 50% of the animals.

[2] = test system: lethal effect of norepinephrine; test: adrenolytic activity in vivo in rats towards the lethal effect of norepinephrine; conditions: Rattus norvegicus
Description: 3) Determination of the adrenolytic activity "in vivo" in rats:
(§1) a) Principle of the measurement
The intravenous injection of norepinephrine (0.4 mg.kg^-1) into wake rats causes the death of 100% of the animals. The prior administration of a substance with an alpha-blocking property enables this toxicity to be reduced.
The results are expressed in the form of the 50% effective dose (ED50), i.e. the dose in mg.kg^-1 which protects 50% of the animals.

[3] = test system: increase in ureteral pressure induced by norepinephrine; test: inhibitory action on the increase in ureteral pressure induced in rabbits by intravenous norepinephrine; format: in vivo, anesthetized male rabbits; conditions: for ED50: Oryctolagus cuniculus, iv, norepinephrine-induced ureteral hyperpressure, read-out: ID50 (50 percent inhibitory dose)
Description: 4) Determination of the inhibitory action of the compounds towards the increase in ureteral pressure induced in rabbits by the intravenous administration of norepinephrine
as §1
The ureteral pressure is measured by catheterization of the prostatic ureter of anesthetized male rabbits. The increase in ureteral pressure is induced by an intravenous injection of norepinephrine. This hyperpressure can be inhibited by the prior administration of molecules with alpha-blocking potential.
These are shown in Table 5 in the form of the 50% inhibitory dose (ID50), which is defined as being the dose of product which, when administered intravenously, causes a 50% inhibition of the ureteral hyperpressure induced by norepinephrine.

[4] = molecular target: T1, post-synaptic alpha-adrenergic receptors (isolated rat vas deferens) (Rattus norvegicus, UniProt P43140); test: alpha-blocking activity towards norepinephrine on isolated rat vas deferens; conditions: norepinephrine contraction, read-out: pA2 (converted)
T1 construct: isolated rat vas deferens; from tissue; host or cells: isolated rat vas deferens
T1 sequence (P43140 1-466): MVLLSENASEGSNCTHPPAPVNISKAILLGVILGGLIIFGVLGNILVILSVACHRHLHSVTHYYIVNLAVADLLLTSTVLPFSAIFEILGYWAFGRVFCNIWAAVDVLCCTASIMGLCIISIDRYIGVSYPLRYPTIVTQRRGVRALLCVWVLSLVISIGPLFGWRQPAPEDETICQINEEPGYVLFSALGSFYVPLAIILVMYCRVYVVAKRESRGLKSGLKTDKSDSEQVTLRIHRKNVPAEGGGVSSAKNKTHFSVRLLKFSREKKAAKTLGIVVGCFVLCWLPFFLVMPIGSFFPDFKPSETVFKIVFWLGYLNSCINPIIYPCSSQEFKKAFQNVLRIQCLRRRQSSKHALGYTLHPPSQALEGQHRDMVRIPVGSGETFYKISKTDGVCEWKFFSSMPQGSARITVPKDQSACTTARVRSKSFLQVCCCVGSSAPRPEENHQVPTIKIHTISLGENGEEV
Description: 2) Determination of the alpha-blockinq activity on isolated rat vas deferens
as §1
Stimulation of the post-synaptic alpha-adrenergic receptors by norepinephrine causes contraction of the isolated vas deferens.
The concentration of product in whose presence the norepinephrine concentration must be doubled to obtain the same effect as in the absence of said product is determined.
The logarithm of this concentration, with its sign changed, constitutes the pA2 of the products.

[5] = oral, norepinephrine 0.4 mg.kg^-1 i.v., read-out: ED50 (50 percent effective dose)

SMILES	LD50 at 336 h [1] [mg/kg]	ED50 [2, 5] [mg/kg]	ED50 [3] [mg/kg]	Kb [4] [nM]	effectiveness against ureteral hyperpressure (in words) ([3]; i.v., in words)	ED50 ([2]; po, prior-art compound, under the same conditions, read-out: ED50) [mg/kg]
CCOc1ccccc1N1CCN(CCc2scnc2C)CC1.Cl.Cl.Cl [B 1211, 4-methyl-5-[2-(4-o-ethoxyphenylpiperazin-1-yl)ethyl]thiazole trihydrochloride]	> 1000	2	0.16	26.3		
Cc1ncsc1CCN1CCN(c2ccccc2OC(C)C)CC1.Cl [B 1398, 4-methyl-5-[2-(4-o-isopropoxyphenylpiperazin-1-yl)ethyl]thiazole monohydrochloride]	> 1000	0.44	0.09	17	remarkably effective	
Cc1ncsc1CCN1CCN(c2ccccc2O)CC1.Cl.Cl [B 1302, 4-methyl-5-[2-(4-o-hydroxyphenylpiperazin-1-yl)ethyl]thiazole dihydrochloride]	490	4	0.44	126		
Cc1ncsc1CCN1CCN(c2ccccc2)CC1 [4-methyl-5-[2-(4-phenylpiperazin-1-yl)ethyl]thiazole, reference compound]						8.7
Cc1ncsc1CCN1CCN(c2ccccc2OCc2ccccc2)CC1 [B 1425]	> 1000	5		63.1		
CCCOc1ccccc1N1CCN(CCc2scnc2C)CC1 [B 1359]	> 1000	1.93		57.5		
CCCCOc1ccccc1N1CCN(CCc2scnc2C)CC1.Cl [B 1341, 4-methyl-5-[2-(4-o-butoxyphenylpiperazin-1-yl)ethyl]thiazole monohydrochloride]	> 1000	1	0.39	10		
Cc1ncsc1CCN1CCN(c2ccccc2OCCC(C)C)CC1 [B 1423]	> 1000	2.35		45.7		
Cc1ncsc1CCN1CCN(c2ccccc2OCC(C)C)CC1 [B 1422]	> 1000	1.6		36.3		
COc1ccccc1N1CCN(CCc2scnc2C)CC1.Cl.Cl.Cl [B 1433, 4-methyl-5-[2-(4-o-methoxyphenylpiperazin-1-yl)ethyl]thiazole trihydrochloride]	> 1000	2.66	0.3	14.5		
CCCCCOc1ccccc1N1CCN(CCc2scnc2C)CC1.Cl [B 1357, 4-methyl-5-[2-(4-o-pentoxyphenylpiperazin-1-yl)ethyl]thiazole monohydrochloride]	> 1000	1.8	0.46	17		
Cc1ncsc1CCN1CCN(c2ccccc2OCC(C)(C)C)CC1 [B 1424]	> 1000	2.04		200		
